From patent US20090233966A1, “Analogues of the Azinomycins as Anti-Tumour Agents and as Prodrugs” (School of Pharmacy, University of London, priority 2005, published 2009)
Like-named read-outs stand apart in the source and are kept apart here.

Key:
[1] = system: U2-OS human osteosarcoma cell line; assay: Cytotoxicity in U2-OS cell line; type: cell-based; conditions: for IC50: read-out: IC50 (nM) of compound; for cytotoxicity (in words): initial cytotoxicity studies
Text: (§1) Initial cytotoxicity studies were in the performed U2-OS and HoeR cell lines. The U2-OS is a human osteosarcoma cell line and HoeR is a DNA minor groove binder-resistant variant of this. Both are available from the American Type Culture Collection (ATCC), Dr. Raymon H. 10801 University Boulevard, Manassas, Va., 20110-2209, USA.

[2] = system: HoeR (Hoechst415 resistant version of U2-OS); assay: Cytotoxicity in HoeR cell line; type: cell-based, human; conditions: for IC50: read-out: IC50 (nM) of compound; for cytotoxicity (in words): initial cytotoxicity studies
Text: as §1

NCl 60 cell panel = assay: NCI 60 cell line panel antitumour activity (whole panel); type: cell-based, human; conditions: wide range of human tumour cell lines
Text: Examples 6 and 7 make use of the NCl 60 cell panel. This is an in vitro cell line screening project providing direct support to the National Cancer Institute's USA Developmental Therapeutic Programme for anti cancer discovery. The methodolgy for the cell line's operation is described by Boyd et al in Drug Development Research 1995, 34, 91-109.

[3] = system: wild type CHO cells (absent in CYP3A4); assay: Cytotoxicity on wild type CHO cells; type: cell-based; conditions: FIG. 2(b)
CYP3A4 CHO cells = assay: Cytotoxicity on CHO cells transfected with CYP3A4; type: cell-based; conditions: FIG. 2(b)

SMILES	IC50 ([1]; Homo sapiens, U2OS) [nM]	cytotoxicity (in words) [1]	IC50 ([2]; Homo sapiens, U2OS) [nM]	cytotoxicity (in words) [2]	antitumour activity in the NCl 60 cell line panel (in words) (NCl 60 cell panel)	IC50 [1] [nM]	IC50 [2] [nM]	cytotoxicity (in words) [3]	cytotoxicity (in words) (CYP3A4 CHO cells)
C=C(C)[C@@H](OC(=O)c1cc(OC)cc2c(C)cccc12)C(N)=O [(2R)-2]	> 10000	not cytotoxic	> 10000	not cytotoxic					
COc1cc(C(=O)O[C@H](C(=O)NCCN2CCCC(Cl)C2)C2(C)CO2)c2cccc(C)c2c1 (some centres unmarked)					excellent anti-tumour activity				
COc1cc(C(=O)OC(C(N)=O)[C@]2(C)CO2)c2ccccc2c1 (stereo partly drawn) [(2S, 3R)-1]		good activity		good activity		120	121		
COc1cc(C(=O)OC(C(N)=O)[C@]2(C)CO2)c2ccccc2c1 (stereo partly drawn) [(2S, 3S)-1]		good activity		good activity		15	14	high cytotoxicity	high cytotoxicity
COc1cc(C(=O)OC(C(N)=O)[C@]2(C)CO2)c2ccccc2c1 (stereo partly drawn) [(2R, 3R)-1]		good activity		good activity		40	40		
COc1cc(C(=O)OC(C(N)=O)[C@]2(C)CO2)c2ccccc2c1 (stereo partly drawn) [(2R, 3S)-1]		good activity		good activity		40	45		
